Read-outs that look alike come from different tables or passages of the source. Each block holds one molecule with its values, some of them ahead of it.
How the values were obtained:
PARP6 = target: T1, PARP6 (Homo sapiens, UniProt Q2NL67); experiment: Assay for selectivity for PARP6 (ELISA, chemiluminescence); format: biochemical
T1 construct: purchased BPS 80556
Method: Main instruments and reagents for PARP6 assay
Experimental procedures: The enzymatic activity of PARP6 was assayed by the ELISA method. […] The IC50 values of the compounds were calculated using the nonlinear fitting formula in GraphPad software.

[1] = tested on: MDA-MB-436 breast cancer subcutaneous xenograft tumor model; experiment: In vivo pharmacodynamic study of compound 53 in MDA-MB-436 subcutaneous xenograft tumor model; design: species or system NOD/SCID mice; conditions: oral once daily, 30 days; for inhibitory effects on tumor growth (in words): compared to blank control
PARP1 = target: T2, PARP1 (Homo sapiens, UniProt P09874); experiment: PARP1 enzyme assay (histone-coated plate, chemiluminescence); format: biochemical; conditions: PARP1 0.02 nM, DNA 0.8 nM, NAD+ 3.5 µM; read-out: PARP-1 IC50
T2 construct: purchased BPS 80501
T2 sequence (P09874 whole entry): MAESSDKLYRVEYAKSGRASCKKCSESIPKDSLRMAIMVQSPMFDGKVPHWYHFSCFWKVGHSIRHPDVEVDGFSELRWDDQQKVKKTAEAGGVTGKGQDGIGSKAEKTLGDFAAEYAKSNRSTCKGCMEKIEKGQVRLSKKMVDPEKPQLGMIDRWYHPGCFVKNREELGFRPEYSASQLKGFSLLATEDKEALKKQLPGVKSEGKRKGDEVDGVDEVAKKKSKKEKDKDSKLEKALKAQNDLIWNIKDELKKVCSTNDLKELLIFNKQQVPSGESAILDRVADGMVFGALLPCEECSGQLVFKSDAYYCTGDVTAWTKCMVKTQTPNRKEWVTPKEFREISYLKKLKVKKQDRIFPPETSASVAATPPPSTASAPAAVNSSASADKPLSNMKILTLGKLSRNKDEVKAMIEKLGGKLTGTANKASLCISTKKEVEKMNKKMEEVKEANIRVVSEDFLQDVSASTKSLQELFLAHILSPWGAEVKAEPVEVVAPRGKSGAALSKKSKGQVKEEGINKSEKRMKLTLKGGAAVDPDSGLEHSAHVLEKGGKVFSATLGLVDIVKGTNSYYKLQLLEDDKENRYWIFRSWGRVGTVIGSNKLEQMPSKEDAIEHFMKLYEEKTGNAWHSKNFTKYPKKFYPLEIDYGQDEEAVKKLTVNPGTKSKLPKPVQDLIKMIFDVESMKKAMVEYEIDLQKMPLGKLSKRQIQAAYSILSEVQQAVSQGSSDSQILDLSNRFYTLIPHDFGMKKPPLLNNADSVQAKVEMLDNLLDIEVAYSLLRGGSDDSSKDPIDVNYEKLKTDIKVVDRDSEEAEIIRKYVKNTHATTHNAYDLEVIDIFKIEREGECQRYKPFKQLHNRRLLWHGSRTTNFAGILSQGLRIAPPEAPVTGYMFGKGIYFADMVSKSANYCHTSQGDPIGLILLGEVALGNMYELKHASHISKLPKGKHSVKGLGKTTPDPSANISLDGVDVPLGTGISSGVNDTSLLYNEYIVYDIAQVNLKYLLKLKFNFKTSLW

[2] = Cerebrospinal fluid and plasma distribution in vivo; conditions: rat, male rats, intravenous 5 mg/kg, n = 1
Method: Experimental procedures: The compound was weighed out, a small amount of DMSO was added, and then a sodium chloride solution for injection was added to prepare a 5 mg·mL^-1 compound solution for later administration. […] 10 µL of the plasma and 10 µL of the cerebrospinal fluid were each added to a centrifuge tube, and 40 µL of acetonitrile containing 20 ng·mL^-1 internal standard SAHA was added for precipitation. […] The supernatant was collected and transferred to a sample vial for later analysis. Range of standard curve: 1-1000 ng·mL^-1.

[3] = Pharmacokinetic evaluation in Balb/c mice; format: in vivo; conditions: 1mg/kg, PO
Method: Experimental objective: To understand the pharmacokinetic profiles of the compounds. Experimental basis: Technical guidelines for non-clinical pharmacokinetic studies of chemical drugs, 2014.
Experimental scheme: The pharmacokinetic profiles of the compounds were investigated by intravenous administration (1 mg·kg^-1) and intragastric administration (1 mg·kg^-1) in Balb/c mice.
Sample preparation: About 0.2 mg of the compound was weighed out and dissolved in 10 µL of DMSO, and then a sodium chloride solution for injection was added to prepare a 0.1 mg·mL^-1 compound solution for later administration.
Three of the mice were subjected to intravenous administration (IV) at 1 mg·kg^-1, while the other three were subjected to intragastric administration (PO) at 1 mg·kg^-1. About 0.05 mL of blood was collected at 5 min, 15 min, 30 min, 1 h, 2 h, 4 h, 6 h, 8 h, 10 h, 24 h, and 48 h after administration. The collected blood was centrifuged at 3500 rpm for 15 min. The supernatant plasma was then collected and cryopreserved at -40 °C for later analysis. The plasma concentration was quantitatively analyzed using the LC-MS/MS method, and pharmacokinetic parameters such as […] (Cmax), area under plasma concentration-time curve (AUC(0-t)), half-life (T1/2), clearance rate (CL), tissue distribution (Vdss), and bioavailability (F) were calculated. Table 18. Results of pharmacokinetic test of compounds in Balb/c mice

[4] = tested on: BRCA wild-type DLD-1 cells; experiment: Anti-proliferative activity against cells (CCK8): DLD-1; format: cell-based; conditions: Homo sapiens, 72 h + 96 h culture
Outline: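 DLD-1 cells (1000/well) in RPMI-1640 with 10% FBS, treated 24 h after plating with PARPi at 0, 1 or 10 µM final. Cultured 72 h, medium exchanged with re-added PARPi, then a further 96 h; read-out by CCK8.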

[5] = tested on: BRCA-mutated MDA-MB-436 cells; experiment: Anti-proliferative activity against cells (CCK8): MDA-MB-436; format: cell-based; conditions: Homo sapiens, 72 h + 96 h culture
[6] = cerebrospinal fluid, read-out: Cerebrospinal fluid

T1 sequence (Q2NL67 whole entry): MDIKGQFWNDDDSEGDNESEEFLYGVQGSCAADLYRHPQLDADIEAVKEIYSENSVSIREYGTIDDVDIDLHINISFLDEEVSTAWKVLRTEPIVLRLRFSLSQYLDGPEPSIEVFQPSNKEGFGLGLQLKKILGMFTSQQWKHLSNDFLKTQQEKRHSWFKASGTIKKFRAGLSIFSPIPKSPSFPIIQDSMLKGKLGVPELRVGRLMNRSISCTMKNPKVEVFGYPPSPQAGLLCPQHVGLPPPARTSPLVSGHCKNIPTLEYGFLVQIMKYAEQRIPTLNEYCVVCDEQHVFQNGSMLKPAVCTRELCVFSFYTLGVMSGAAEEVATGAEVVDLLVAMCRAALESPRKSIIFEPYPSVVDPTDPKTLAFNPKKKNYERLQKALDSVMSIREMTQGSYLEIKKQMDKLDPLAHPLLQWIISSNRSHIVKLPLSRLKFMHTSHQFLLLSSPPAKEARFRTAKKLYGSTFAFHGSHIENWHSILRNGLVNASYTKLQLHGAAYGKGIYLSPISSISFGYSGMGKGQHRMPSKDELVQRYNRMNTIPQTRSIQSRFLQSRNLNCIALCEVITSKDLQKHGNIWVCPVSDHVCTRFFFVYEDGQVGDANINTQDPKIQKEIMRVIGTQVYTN

IC50 (PARP6): 8190 nM
Structure (SMILES): CCc1cc2ncc(CN3CCN(c4ccc(C(=O)NC)nc4)CC3)cc2[nH]c1=O [AZD5305, reference compound]

Structure (SMILES): CNC(=O)c1ccc(N2CCN(Cc3ccc4nc(C)c(=O)[nH]c4c3F)CC2)c(F)n1 [AZD9574, reference compound]
inhibitory effects on tumor growth (in words) ([1]; 3 mg/kg): significant inhibitory effects on tumor growth

Structure (SMILES): CNC(=O)c1ccc(N2CCN(CC3Cc4[nH]c(=O)c(C(F)F)cc4CO3)CC2)c(F)n1 (stereo not shown) [Example 43, 5-(4-((3-(Difluoromethyl)-2-oxo-1,5,7,8-tetrahydro-2H-pyrano[4,3-b]pyridin-7-yl)methyl)piperazin-1-yl)-6-fluoro-N-methylpicolinamide]
IC50 (PARP1): 50 to 500 nM | concentration at 0.25 h [2, 6]: 16 ng/g | concentration at 2 h [2, 6]: 3 ng/g | concentration at 0.25 h ([2]; plasma, read-out: Plasma): 8030 ng/mL | concentration at 2 h ([2]; plasma, read-out: Plasma): 7690 ng/mL | IC50 (PARP6): > 10000 nM | inhibitory effects on PARP6 (in words) (PARP6; conclusion of Table 21): Conclusion: Compounds 2, 43, etc., of the present disclosure exhibited relatively weak inhibitory effects on PARP6, demonstrating high selectivity.

Structure (SMILES): CCc1nc2c([nH]c1=O)C[C@@H](CN1CC=C(c3ccc(C(=O)NC)nc3F)CC1)CC2 [Example 53, (S)-1'-((2-Ethyl-3-oxo-3,4,5,6,7,8-hexahydroquinoxalin-6-yl)methyl)-2-fluoro-N-methyl-1',2', 3',6'-tetrahydro-[3,4'-bipyridine]-6-carboxamide]
anti-tumor effect compared with the AZD9574 (3 mg/kg) group (in words) ([1]; 1 mg/kg): superior | inhibitory effects on tumor growth (in words) ([1]; 1 mg/kg): significant inhibitory effects on tumor growth | IC50 (PARP1): ≤ 50 nM | CL [3]: 0.67 mL/min/kg | Vdss [3]: 0.42 L/kg | AUC(0-t) ([3]; male, mouse, plasma): 22300 ng·h/mL | Cmax ([3]; male, mouse, plasma): 3650 ng/mL | half-life ([3]; male, mouse, plasma): 7.1 h | IC50 [4]: > 1000 nM | IC50 [5]: 1.5 nM

From patent publication EP4768487A1, “FUSED LACTAM RING COMPOUND AND USE THEREOF” (Chengdu Zenitar Biomedical Technology Co., Ltd., priority 2023, dated 2025)
